Publication PMC9962200, “Selectively Modified Lactose and N-Acetyllactosamine Analogs at Three Key Positions to Afford Effective Galectin-3 Ligands” (International Journal of Molecular Sciences, 2023)
Counter-ions that a name gives are not always drawn.

Target: T1, human galectin-3 (hGal-3) (Homo sapiens, UniProt P17931)
T1 construct: P.K. and P.B. prepared recombinant full-length hGal-3 and contributed to the ITC experiments; made in house
Test: Isothermal titration calorimetry (ITC) of sugar analogs with recombinant hGal-3
Assay type: binding
Settings: 27 °C; for −ΔH: binding enthalpy, lectin monomer units, errors 1–4%; for −ΔG: calculated from ΔG = -RT ln(Ka), errors less than 2%; for −TΔS: calculated from ΔG = ΔH − TΔS; for −TΔS / Kd: errors 1–7%; for n Sites/ Monomer: number of binding sites per hGal-3 monomer, errors less than 4%; for Kd / Ka: pH 7.2, 20 mM PBS buffer; for Kd: recombinant hGal-3, Kd calculated from 1/Ka; for Ka: recombinant hGal-3, errors 1–7%; for Relative Potencies: relative to methyl lactoside 1 = 1.0
Experimental: The Kd value of PNP LacNAc (20) was similar to that of its propargyl Lac analog 11.
ITC experiments were performed using a VP-ITC instrument from GE. Injections of 4 µL of carbohydrate solutions were added from a computer-controlled micro syringe at an interval of 4 min into the sample solution of hGal-3 (cell volume = 1.43 mL) with stirring at 350 rpm. Control experiments were performed by injecting the carbohydrates into a cell containing only buffer. The concentration range of hGal-3 was 90–130 µΜ, and the concentrations of the carbohydrates were 15–25 mM based on the dry weight molecular weights of the latter molecules. The concentration of hGal-3 was based on its molecular mass. Titrations were done at 27 °C (pH 7.2) using 20 mM PBS buffer. The experimental data were fitted to a theoretical titration curve using software supplied by the vendor, with ΔH (binding enthalpy in kcal mol^−1) (lectin monomer units), Ka (association constant) and n (number of binding sites per monomer), as adjustable parameters. The Kd (dissociation constant) was calculated from 1/Ka. The quantity c = Ka Mt (0), where Mt (0) is the initial macromolecule concentration, is of importance in titration microcalorimetry. All experiments were performed with c values 1 < c < 500. The instrument was calibrated using the calibration kit containing ribonuclease A (RNase A) and cytidine 2′-monophosphate (2′-CMP) supplied by the manufacturer. Thermodynamic parameters were calculated from the Gibbs Free Energy equation, ΔG = ΔH − TΔS = -RT ln(Ka), where ΔG, ΔH, and ΔS are the changes in free energy, enthalpy, and entropy of binding, respectively. T is the absolute temperature and R = 1.98 cal mol^−11 K^−1.

T1 sequence (P17931 whole entry): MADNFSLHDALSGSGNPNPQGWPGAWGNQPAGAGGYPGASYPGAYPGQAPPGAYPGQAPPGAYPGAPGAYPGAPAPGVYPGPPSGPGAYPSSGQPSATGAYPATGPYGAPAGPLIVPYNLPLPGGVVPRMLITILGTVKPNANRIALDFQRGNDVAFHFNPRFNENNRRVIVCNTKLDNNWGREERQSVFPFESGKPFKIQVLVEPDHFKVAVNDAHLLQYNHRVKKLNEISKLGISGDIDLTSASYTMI

Structure (SMILES)	−ΔH	−ΔG	−TΔS	n Sites/ Monomer	Kd	Ka	Relative Potencies
CO[C@@H]1O[C@H](CO)[C@@H](O[C@@H]2O[C@H](CO)[C@H](O)[C@H](O)[C@H]2O)[C@H](O)[C@H]1O [Compound 1, methyl 4-O-β-D-galactopyranosyl-β-D-glucopyranoside, reference compound]	3.9 kcal/mol	5.5 kcal/mol	-1.6 kcal/mol	1.08	91 µM	1.1 10^4 M^−1	1.0
C#CCO[C@@H]1O[C@H](CO)[C@@H](O[C@@H]2O[C@H](CO)[C@H](O)[C@H](O)[C@H]2O)[C@H](O)[C@H]1O [Compound 4, Propargyl (β-D-Galactopyranosyl)-(1→4)-β-D-Glucopyranoside]	5.7 kcal/mol	5.9 kcal/mol	-0.2 kcal/mol	0.98	47.6 µM	2.1 10^4 M^−1	1.9
O=[N+]([O-])c1ccc(O[C@@H]2O[C@H](CO)[C@@H](O[C@@H]3O[C@H](CO)[C@H](O)[C@H](O)[C@H]3O)[C@H](O)[C@H]2O)cc1 [Compound 6, 4-Nitrophenyl (β-D-Galactopyranosyl)-(1→4)-β-D-Glucopyranoside]	3.7 kcal/mol	5.9 kcal/mol	-2.2 kcal/mol	1.10	50 µM	–	1.8
C#CCO[C@@H]1O[C@H](CO)[C@@H](O[C@@H]2O[C@H](CO)[C@H](O)[C@H](OS(=O)(=O)O)[C@H]2O)[C@H](O)[C@H]1O [Compound 11, Propargyl (3-O-Sulfo-β-D-Galactopyranosyl)-(1→4)-β-D-Glucopyranoside Sodium Salt]	3.8 kcal/mol	6.1 kcal/mol	-2.3 kcal/mol	1.08	37 µM	2.7 10^4 M^−1	2.5
O=[N+]([O-])c1ccc(O[C@@H]2O[C@H](CO)[C@@H](O[C@@H]3O[C@H](CO)[C@H](O)[C@H](OS(=O)(=O)O)[C@H]3O)[C@H](O)[C@H]2O)cc1 [Compound 12, 4-Nitrophenyl (3-O-Sulfo-β-D-Galactopyranosyl)-(1→4)-β-D-Glucopyranoside Sodium Salt]	6.0 kcal/mol	6.4 kcal/mol	-0.4 kcal/mol	0.97	20.4 µM	4.9 10^4 M^−1	4.5
CC(=O)N[C@H]1[C@H](Oc2ccc([N+](=O)[O-])cc2)O[C@H](CO)[C@@H](O[C@@H]2O[C@H](CO)[C@H](O)[C@H](O)[C@H]2O)[C@@H]1O [Compound 20, 4-Nitrophenyl (β-D-Galactopyranosyl)-(1→4)-2-Acetamido-2-Deoxy-β-D-Glucopyranoside]	7.3 kcal/mol	6.1 kcal/mol	1.2 kcal/mol	1.05	33.3 µM	3.0 10^4 M^−1	2.7

More lines, now with the values ahead:

−ΔH	−ΔG	−TΔS	n Sites/ Monomer	Kd	Ka	Relative Potencies	Structure (SMILES)
3.3 kcal/mol	6.3 kcal/mol	-3.0 kcal/mol	0.96	22.2 µM	4.5 10^4 M^−1	4.1	CC(=O)N[C@H]1[C@H](Oc2ccc([N+](=O)[O-])cc2)O[C@H](CO)[C@@H](O[C@@H]2O[C@H](CO)[C@H](O)[C@H](OS(=O)(=O)O)[C@H]2O)[C@@H]1O [Compound 23, 4-Nitrophenyl (3-O-Sulfo-β-D-Galactopyranosyl)-(1→4)-2-Acetamido-2-Deoxy-β-D-Glucopyranoside Sodium Salt]
4.2 kcal/mol	6.0 kcal/mol	-1.8 kcal/mol	1.10	38 µM	2.6 10^4 M^−1	2.4	C#CCO[C@@H]1O[C@H](CO)[C@@H](O[C@@H]2O[C@H](CO)[C@H](O)[C@H](O)[C@H]2O)[C@H](O)[C@H]1NC(C)=O [Compound 27, Propargyl (β-D-Galactopyranosyl)-(1→4)-2-Acetamido-2-Deoxy-β-D-Glucopyranoside]
5.2 kcal/mol	6.6 kcal/mol	-1.4 kcal/mol	1.07	14.7 µM	6.8 10^4 M^−1	6.2	C#CCO[C@@H]1O[C@H](CO)[C@@H](O[C@@H]2O[C@H](CO)[C@H](O)[C@H](OS(=O)(=O)O)[C@H]2O)[C@H](O)[C@H]1NC(C)=O [Compound 30, Propargyl (3-O-Sulfo-β-D-Galactopyranosyl)-(1→4)-2-Acetamido-2-Deoxy-β-D-Glucopyranoside Sodium Salt]
4.3 kcal/mol	5.8 kcal/mol	–	1.10	52.6 µM	1.9 10^4 M^−1	1.7	C#CCO[C@@H]1O[C@H](CO)[C@@H](O[C@@H]2O[C@H](CO)[C@H](O)[C@H](OCC(=O)O)[C@H]2O)[C@H](O)[C@H]1NC(C)=O [Compound 32, Propargyl (3-O-Carboxymethyl-β-D-Galactopyranosyl)-(1→4)-2-Acetamido-2-Deoxy-β-D-Glucopyranoside Sodium Salt]
5.9 kcal/mol	5.7 kcal/mol	0.2 kcal/mol	1.04	62.5 µM	1.6 10^4 M^−1	1.5	C#CCOC1OC(CO)C(OC2OC(CO)C(O)C(OC3(C(=O)O)CC(O)C(NC(C)=O)C(C(O)C(O)CO)O3)C2O)C(O)C1NC(C)=O (stereo not drawn) [Compound 33]
